Data as given in US8100830B2, “Non-therapeutic methods of evaluating skin neurosensitivity, kit and use of a kit for implementing the method” (Societe l'Oreal S.A., priority 2002, dated 2012).

What was measured:
[1] = type: physicochemical
Source text: When the peripheral nervous system stimulant is capsaicin, a preferred vehicle is an aqueous-alcoholic solution, advantageously an aqueous-ethanolic solution, containing from 1% to 50% of ethanol in water, advantageously from 5% to 20%, preferably from 8% to 15% and more preferably 10%.

[2] = test system: nasogenial sulci of healthy subjects; assay: Example 1: detection threshold test, increasing capsaicin concentrations C1-C4 applied to the nasogenial sulci against vehicle; type: in vivo, human; settings: 13 healthy subjects, 3.3×10^−5% to 1×10^−3% in ethanol 10%, water 90%
Description: Capsaicin was tested in the form of aqueous-alcoholic solutions (ethanol 10%, water 90%).
Experimental Design: • Randomized, single-blind study, controlled • 13 healthy subjects of both sexes • 4 capsaicin solutions tested: 3.3×10^−5% (C1), 1×10^−4% (C2), 3.3×10^−4% (C3), 1×10^−3% (C4)
1st step: Simultaneous application to the nasogenial sulci on each side of the face of the vehicle, using impregnated cotton buds, in order to acclimatize the volunteer to the sensations induced by application of the vehicle. Waiting time of 3 minutes.
2nd step: Application of the vehicle to one side and of the capsaicin solution at concentration C1 on the other. After 3 minutes, ask whether the subject has perceived a difference between the 2 sides. If the subject describes an unattractive sensation on the side which has received the capsaicin, stop the test and allocate C1 as the detection threshold. If not, go immediately to step 3.
3rd step: Application of solution C2 to the side which has received the vehicle in […] and of the vehicle to the other side. After 3 minutes, ask whether the subject has perceived a difference between the 2 sides. If the subject describes a particular sensation on the side which has received the capsaicin, stop the test and allocate C2 as the detection threshold. If not, go immediately to step 4. […]

[3] = test system: skin of a non-selective population of 150 women; assay: Example 7: skin neurosensitivity threshold of 150 women with the kit of Example 3 (capsaicin solutions C1-C5); type: in vivo, human
Description: This kit allows approximately 50 instances of use and comprises in a box (B) the following elements: • 1. a holder P allowing […] bottles as described in section 2 of this list to be held upright; • 2. 5 bottles F3 of 20 ml containing respectively 15 ml of solutions C1-C5 (3.16×10^−5% (C1), 1×10^−4% (C2), 3.16×10^−4% (C3), 1×10^−3% (C4) and 3.16×10^−3% (C5)) and a bottle F3T containing 15 ml of a 10% aqueous-alcoholic solution T; these bottles are shown in FIG. 2 and correspond to those defined in section 4 of Example 2; • 3. 80 standard cotton buds CT; • 4. a usage note containing the following elements: • a) use instructions for the implementation of the test, reproducing the protocol of Example 1, using the cotton buds and the bottles F3C1-5 and F3T; the bottles must be stored at 4° C. between two instances of use and discarded after one week of use. • b) a calibration system (atlas) allowing interpretation of the results (C1: excessively sensitive skin; C2: highly sensitive skin; C3: moderately sensitive skin; C4: relatively insensitive skin; C5: virtually insensitive skin; C5 not detected: completely insensitive skin).
Use of the Kit of Example 3 to Determine the Skin Neurosensitivity Threshold of 150 Women:
Study performed in a single-blind procedure on a non-selective population of 150 women aged from 18 to 60 years living in Paris or the surrounding region.
It is interesting to note that the sensations reported at the level of the detection threshold (characterized by a sensation detected on the side where the capsaicin was applied, lasting for at least 30 seconds) are highly varied (presence, pins and needles, stinging, hotness, etc.)

[4] = 109 women who detected a concentration, intensity scale 1 to 5

SMILES: COc1cc(CNC(=O)CCCC/C=C/C(C)C)ccc1O [capsaicin]
- stability over time of aqueous-ethanolic solutions [1]: particularly stable over time
- tolerance of the test (pain) as evaluated by the subjects [2]: absolutely painless for all of the 13 subjects
- delay before appearance of the sensation, maximum ([3]; 74 of the 150 subjects): 120 s
- delay before appearance of the sensation, minimum ([3]; 74 of the 150 subjects): 60 s
- delay before appearance of the sensation, mean ([3]; 74 of the 150 subjects, at the detection threshold): 79.9 s
- sensations at level 2 (slight but perceptible) at the detected concentration [3, 4]: 95%
- sensations at level 3 (moderately clearly perceptible) at the detected concentration [3, 4]: 5%
- sensations of level 4 (substantial) or painful at the detected concentration [3, 4]: No sensation of level 4 (“substantial”) or (“painful”) was reported
- subjects who detected C1, C2 or C3 (sensitive to highly sensitive population) ([3]; 150 women, C1 3.16×10^−5%, C2 1×10^−4%, C3 3.16×10^−4%): 56%
- subjects who detected C4 or C5 or did not detect any concentration (virtually or completely insensitive population) ([3]; 150 women, C4 1×10^−3%, C5 3.16×10^−3%): 44%
- women who detected a concentration ([3]; of 150 women, C1-C5): 109
